Data: patent publication EP3421460A1, “2-[(4-ALKYLPHENOXY)-PYRIDINYL]-1-(1,2,4-TRIAZOL-1-YL)ALKAN-2-OL FUNGICIDES” (Bayer Aktiengesellschaft, priority 2018, dated 2019)

Experiments:
[1] = LogP measurement by HPLC on reversed phase columns (EEC directive 79/831 Annex V.A8); type: physicochemical; settings: reversed phase HPLC column; method [a]: LC-UV, acidic range, 0.1% formic acid in water and acetonitrile as eluent
Experimental: LogP values: Measurement of LogP values was performed according to EEC directive 79/831 Annex V.A8 by HPLC (High Performance Liquid Chromatography) on reversed phase columns with the following methods: • [a] […] If more than one LogP value is available within the same method, all the values are given and separated by "+". Calibration was done with straight-chain alkan2-ones (with 3 to 16 carbon atoms) with known LogP values (measurement of LogP values using retention times with linear interpolation between successive alkanones). Lambda-max-values were determined using UV-spectra from 200 nm to 400 nm and the peak values of the chromatographic signals.

Podosphaera leucotricha = assay: in vivo curative test on Podosphaera (apples); settings: sprayed 2 days after inoculation, evaluated 10 days after inoculation
Experimental: Example B: in vivo curative test on Podosphaera (apples); comparison of compound I-01 according to the invention vs. related compounds known from WO-A 2017/029179 and WO-A 2013/007767, respectively [table] To produce a suitable preparation of active compound, 1 part by weight of active compound is mixed with the stated amounts of solvent and emulsifier, and the concentrate is diluted with water to the desired concentration. To test for curative activity, young plants are inoculated with an aqueous spore suspension of the causal agent of apple mildew (Podosphaera leucotricha). The plants are placed in a greenhouse at approximately 23°C under relative atmospheric humidity of approximately 70%. 2 days after the inoculation, the plants are sprayed with the preparation of active compound at the stated rate of application. The test is evaluated 10 days after the inoculation. 0% means an efficacy which corresponds to that of the untreated control, while an efficacy of 100% means that no disease is observed. Table: in vivo curative test on Podosphaera test (apples)

Phakopsora pachyrhizi = assay: in vivo curative test on Phakopsora (soybeans); settings: sprayed 3 days after inoculation, evaluated 7 days after inoculation
Experimental: Example A: in vivo curative test on Phakopsora (soybeans); comparison of compound I-01 according to the invention vs. related compounds known from WO-A 2017/029179 and WO-A 2013/007767, respectively [table] To produce a suitable preparation of active compound, 1 part by weight of active compound is mixed with the stated amounts of solvent and emulsifier, and the concentrate is diluted with water to the desired concentration. To test for curative activity, young plants are inoculated with an aqueous spore suspension of the causal agent of soybean rust (Phakopsora pachyrhizi) and stay for 24h without light in an incubation cabinet at approximately 24°C and a relative atmospheric humidity of 95 %. The plants remain in the incubation cabinet at approximately 24°C and a relative atmospheric humidity of approximately 80 % and a day / night interval of 12h. 3 days after the inoculation, the plants are sprayed with the preparation of active compound at the stated rate of application. The test is evaluated 7 days after the inoculation. 0% means an efficacy which corresponds to that of the untreated control, while an efficacy of 100% means that no disease is observed. Table: in vivo curative test on Phakopsora test (soybeans)

| chromatographic logP [1] | Compound | Efficacy in% (Podosphaera leucotricha; rate of application 1 ppm) [%] | Efficacy in% (Podosphaera leucotricha; rate of application 10 ppm) [%] | Efficacy in% (Phakopsora pachyrhizi; rate of application 5 ppm) [%] | Efficacy in% (Phakopsora pachyrhizi; rate of application 10 ppm) [%] |
| --- | --- | --- | --- | --- | --- |
| 2.69 | Cc1ccc(Oc2ccc(C(C)(O)Cn3cncn3)c(C(F)(F)F)n2)cc1 (stereo not shown) [I-01, 2-[6-(4-methylphenoxy)-2-(trifluoromethyl)pyridin-3-yl]-1-(1,2,4-triazol-1-yl)propan-2-ol] | 86 | 99 | 86 | 83 |
| – | CC(O)(Cn1cncn1)c1ccc(Oc2ccc(S(F)(F)(F)(F)F)cc2)nc1C(F)(F)F (stereo not shown) [drawing 9] | – | – | 0 | 0 |
| – | CC(O)(Cn1cncn1)c1ccc(Oc2ccc(Cl)cc2)cc1C(F)(F)F (stereo not shown) [drawing 10] | – | – | 8 | 15 |
| – | CC(O)(Cn1cncn1)c1ccc(Oc2ccc(S(F)(F)(F)(F)F)cc2)nc1C(F)(F)F (stereo not shown) [drawing 12] | 62 | 92 | – | – |
| – | CC(O)(Cn1cncn1)c1ccc(Oc2ccc(Cl)cc2)cc1C(F)(F)F (stereo not shown) [drawing 13] | 71 | 95 | – | – |
